These results are taken from patent US20090312274A1, “Nyasol and Analogs Thereof for the Treatment of Estrogen Receptor Beta-Mediated Diseases” (Bionovo, Inc., priority 2008, published 2009).

Experiment [1] deals with T1, ERβ (Homo sapiens, UniProt Q92731). Conditions: in the presence of ERβ.
In the next experiment the test system is TNF-RE tkLuc. Briefly: Activation of the TNF-RE tkLuc reporter (TNF-α, antiestrogens). It is filed as cell-based. Conditions: for activation of TNF-RE tkLuc by antiestrogens: in contrast to E2.
A further experiment concerns the target T2, ERα (Homo sapiens, UniProt P03372).
T2 sequence (P03372 1-595): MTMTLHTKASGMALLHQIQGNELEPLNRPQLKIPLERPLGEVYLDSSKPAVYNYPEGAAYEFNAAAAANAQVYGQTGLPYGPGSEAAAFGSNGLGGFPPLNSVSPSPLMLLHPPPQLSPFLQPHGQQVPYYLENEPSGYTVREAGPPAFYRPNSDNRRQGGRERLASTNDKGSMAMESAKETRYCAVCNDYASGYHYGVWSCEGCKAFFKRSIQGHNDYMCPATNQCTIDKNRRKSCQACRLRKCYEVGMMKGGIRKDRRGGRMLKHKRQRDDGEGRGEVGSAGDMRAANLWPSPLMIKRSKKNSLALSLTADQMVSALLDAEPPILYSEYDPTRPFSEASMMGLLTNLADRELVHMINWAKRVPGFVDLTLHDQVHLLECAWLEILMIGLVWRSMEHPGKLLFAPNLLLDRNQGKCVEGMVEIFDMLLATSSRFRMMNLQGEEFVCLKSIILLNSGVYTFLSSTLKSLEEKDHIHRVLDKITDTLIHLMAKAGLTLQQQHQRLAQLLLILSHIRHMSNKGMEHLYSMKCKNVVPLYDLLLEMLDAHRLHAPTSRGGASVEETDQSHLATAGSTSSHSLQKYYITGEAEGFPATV
As to the kind of experiment: Concentration binding curve for Nyasol, ERα (FIG. 6).

For a further experiment, the system named is TNFα-RE. As to the kind of experiment: Repression of TNFα-RE linked expression of Luc by nyasol (FIG. 4). Conditions: in vitro.
Experiment [2] addresses T3, estrogen receptor beta (ERβ) (Homo sapiens, UniProt Q92731).
T3 construct: expressed in transfected cells
As to the kind of experiment: ERE-tkLuc luciferase expression with nyasol in cells coexpressing ERβ (FIG. 3, FIG. 5). Format: cell-based. An excerpt: FIG. 3 is a graph comparing luciferase expression in cells transformed with DNA encoding estrogen response element alpha linked to the minimal thymidine kinase (tk) promoter and a sequence encoding luciferase (Luc) in response to varying concentrations of nyasol in the presence of either estrogen receptor alpha (ERα) or estrogen receptor beta (ERβ).

For experiment [3], the system named is MCF-7 breast cancer cells. As to the kind of experiment: MCF-7 kidney capsule xenografts in nude mice. The arrangement: dose or concentration left out as unconfirmed. Conditions: 28 days.
Protocol: MCF-7 xenografts were introduced into nude mouse kidneys. Mice were randomized to three treatment groups. […] Each treatment group was treated for 28 days, after which mice were euthanized and the kidneys containing the xenografts were excised, photographed and weighed.
The target in experiment [4] is T1, ERβ. As to the kind of experiment: Concentration binding curve for Nyasol, ERβ (FIG. 6).
A further experiment has as its system breast cancer. Particulars: among the 5129 women in the raloxifene treatment group; median follow-up 40 months; cited from earlier work.
Experiment [5] concerns estrogen receptor-positive breast cancer. Conditions: cited from earlier work.
Experiment [6] deals with primary invasive breast cancer. Particulars: women at high risk for breast cancer; cited from earlier work.
Where [7] appears, read: five years of tamoxifen therapy.

“Also recorded” adds a separate entry of the source.

T3 sequence (Q92731 whole entry): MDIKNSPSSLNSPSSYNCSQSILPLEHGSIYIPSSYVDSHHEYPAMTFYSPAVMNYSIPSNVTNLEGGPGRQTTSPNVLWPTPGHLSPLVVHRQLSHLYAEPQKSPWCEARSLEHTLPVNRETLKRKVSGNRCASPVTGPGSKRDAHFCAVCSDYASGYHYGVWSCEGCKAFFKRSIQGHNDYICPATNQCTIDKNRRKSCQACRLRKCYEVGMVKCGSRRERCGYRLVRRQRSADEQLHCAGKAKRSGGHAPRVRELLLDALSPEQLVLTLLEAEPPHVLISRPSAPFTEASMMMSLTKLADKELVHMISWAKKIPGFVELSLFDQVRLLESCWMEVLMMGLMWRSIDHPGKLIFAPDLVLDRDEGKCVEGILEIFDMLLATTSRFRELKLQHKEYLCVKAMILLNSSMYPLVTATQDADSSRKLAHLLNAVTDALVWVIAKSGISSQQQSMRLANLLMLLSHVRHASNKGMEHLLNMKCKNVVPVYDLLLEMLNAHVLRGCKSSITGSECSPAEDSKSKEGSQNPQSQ
T1 sequence (Q92731 whole entry): as above

Regarding `C[C@]12CC[C@@H]3c4ccc(O)cc4CC[C@H]3[C@@H]1CC[C@@H]2O` [E2, estradiol], the “repression of TNF-α activation of TNF-RE tkLuc” value on ERβ [1] is 60-80%.

Consider `C[C@]12CC[C@@H]3c4ccc(O)cc4C[C@@H](CCCCCCCCC[S+]([O-])CCCC(F)(F)C(F)(F)F)[C@H]3[C@@H]1CC[C@@H]2O` (some centres unmarked) [ICI 182780], for which the “activation of TNF-RE tkLuc by antiestrogens” value (“activation … by antiestrogens” for short) in the experiment on TNF-RE tkLuc was 2 fold.

`C=CC(/C=C\c1ccc(O)cc1)c1ccc(O)cc1` (centres unmarked) [Nyasol, nyasol]: at ERα, the “binding of ERα with nyasol” value is “bind”. In the experiment on TNFα-RE, the “repression of TNFα-RE linked expression of Luc” value is on record as “selectively represses”. Moreover, the “ERβ-selective activation of the ERE (luciferase expression, ERβ versus ERα)” value in experiment [2] (FIG. 3, varying concentrations of nyasol, ERE-tkLuc) was “selectively activates the ERE; also recorded: selective estrogen receptor beta agonist”. In addition, the “expression of luciferase in ERE-tkLuc-transformed cells coexpressing ERβ” value in [2] (FIG. 5, nyasol, control EtOH) is reported as “activated the ERE”. The “growth of MCF-7 kidney capsule xenografts compared to control” value in experiment [3] is listed as “inhibits the growth”. Also, at ERβ [4], the “binding of ERβ with nyasol” value is on record as “bind”.

For the compound `O=C(c1ccc(OCCN2CCCCC2)cc1)c1c(-c2ccc(O)cc2)sc2cc(O)ccc12` [raloxifene], the “activation … by antiestrogens” value with TNF-RE tkLuc was determined as 2 fold. The “effect of addition to nyasol on activation of the ERE” value in [2] (FIG. 5, added together with Nyasol, ERβ) was “reduced this activation”. Besides, the “cases of breast cancer” value in the experiment with breast cancer is 13 cases.

Consider `CC/C(=C(\c1ccccc1)c1ccc(OCCN(C)C)cc1)c1ccccc1` [tamoxifen], for which the “activation … by antiestrogens” value in the experiment on TNF-RE tkLuc amounted to 2 fold. Besides, in [5] (setting [7]), the “reduction of mortality from breast cancer” value was 22% and the “reduction of the risk of recurrences” value is given as 42%. In [5] (fraction of tumors), the “ER positive breast tumors that respond” value is given as “⅔”. For the same compound, the “reduction of the risk of primary invasive breast cancer” value in experiment [6] was 49%.

On to TNF-α, for which the “activation of 3 copies of the TNF-RE (−125 to −82) upstream of the tk promoter” value in the experiment on TNF-RE tkLuc (TNF-α as stimulus) is 5-10 fold.
